From patent US9808433B2, “Combination of a centrally-acting analgesic and a selective cyclooxygenase-2 inhibitor anti-inflammatory agent for the treatment of inflammation and pain in the veterinary field” (FORMEVET S.R.L., priority 2010, dated 2017)

Legend:
[1] = target: T1, COX-1 (Canis lupus familiaris, UniProt Q8HZR1); conditions: dog, low therapeutic doses; cited from earlier work
T1 sequence (Q8HZR1 28-603): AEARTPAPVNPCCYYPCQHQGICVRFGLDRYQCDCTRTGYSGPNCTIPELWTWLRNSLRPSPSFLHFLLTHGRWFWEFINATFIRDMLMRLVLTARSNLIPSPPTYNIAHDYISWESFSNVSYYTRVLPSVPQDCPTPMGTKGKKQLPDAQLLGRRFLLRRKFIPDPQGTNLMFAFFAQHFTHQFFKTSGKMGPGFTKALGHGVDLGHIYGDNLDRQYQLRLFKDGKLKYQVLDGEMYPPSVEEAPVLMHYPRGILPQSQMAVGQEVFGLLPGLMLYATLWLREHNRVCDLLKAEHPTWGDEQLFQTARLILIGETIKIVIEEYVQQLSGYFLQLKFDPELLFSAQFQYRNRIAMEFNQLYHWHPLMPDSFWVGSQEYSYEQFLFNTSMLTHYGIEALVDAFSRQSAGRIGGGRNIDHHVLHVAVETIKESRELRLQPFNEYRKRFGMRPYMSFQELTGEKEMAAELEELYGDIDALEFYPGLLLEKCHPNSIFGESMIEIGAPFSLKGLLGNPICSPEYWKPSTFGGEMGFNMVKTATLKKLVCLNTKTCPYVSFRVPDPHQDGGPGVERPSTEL

[2] = tested on: inflammatory oedema of the CFA-injected hind paw; experiment: Complete Freund adjuvant (CFA) induced paw inflammation (oedema) in the rat, plethysmometer; format: in vivo, Sprague-Dawley rats; conditions: for ml (inflamed paw/normal paw), intensity of oedema: day 3 after CFA, mean ± SD
Method: An inflammation model extensively used and validated in the rat was used for the study.
Sprague-Dawley rats weighing 200-250 grams were used. The animals were housed in groups of 4 to a cage, at the temperature of 22° C.±2° C., with a light-dark cycle of 12/12-hour and unlimited access to food and water. The animals were used after a week's acclimatisation in the housing facility. Each test group consisted of 8 rats.
Inflammation was induced in one limb of the rat by administering a suspension of complete Freund adjuvant (CFA) containing 0.1 mg/0.1 ml of inactivated mycobacterium tuberculosis (H37Ra, ATCC 25177), in paraffin oil and mannide monooleate. The CFA was injected into the plantar surface of the left hind paw of the rat. This method induces reproducible inflammation characterised by oedema and pain.
All the medicaments were administered 3 days after the inflammation was induced with CFA. The Firocoxib was resuspended in a carrier consisting of 0.5% methocel, and administered orally in the volume of 1 ml at the doses of 2.5 and 5 mg/Kg.
The dose of 2.5 mg/Kg was combined with Tramadol at the dose of 4 mg/Kg. Tramadol dissolved in saline was administered by the intraperitoneal route (i.p., 0.2 ml/100 grams of weight) 30 minutes […] the Firocoxib. Inflammatory oedema was evaluated 1 hour after the Tramadol, corresponding to 90 minutes after the Firocoxib. […] The control animals were treated per os with the carrier, and i.p. with the same volume of saline.
The intensity of the oedema was measured on day 3 after intraplantar administration of CFA, 90 minutes after Firocoxib, corresponding to 1 hour after i.p. administration of Tramadol. We chose to evaluate the oedema 3 days after it was induced, because it is largest at this time. The paw swelling (oedema) was evaluated by measuring the volume of both hind paws using a specific instrument, the plethysmometer (7150 plethysmometer, Basile, Comerio, Italy). The results are expressed as the algebraic difference between the volume in ml of the inflamed paw (injected with CFA) and the normal uninflamed paw: the greater the difference, the larger the oedema present.
The values are the mean±SD of 8/10 rats.
The significance of the anti-inflammatory activity was evaluated with the Analysis of Variance (ANOVA) test, followed by the Bonferroni multiple comparison test. ANOVA test is the most suitable statistical test when more than 2 treatment groups are present. It is a restrictive test because it takes account of the variability of all the trial groups.

[3] = cited from earlier work

CC1(C)OC(=O)C(OCC2CC2)=C1c1ccc(S(C)(=O)=O)cc1 [Firocoxib]
inhibition of COX-1 (in words) [1]: do not significantly inhibit COX-1
anti-inflammatory effect (in words) ([2]; Firocoxib 2.5 mg/kg alone): completely lost its anti-inflammatory effect
ml (inflamed paw/normal paw), intensity of oedema ([2]; Firocoxib 2.5 mg/kg p.o. alone, 90 min after Firocoxib): 0.83 ± 0.05 mL
ml (inflamed paw/normal paw), intensity of oedema ([2]; Firocoxib 5 mg/Kg p.o. alone, 90 min after Firocoxib, p < 0.01 vs saline): 0.42 ± 0.08 mL
inhibition at 5 mg/kg ([2]; Rattus norvegicus, Firocoxib 5.0 mg/kg alone): ~50%

COc1cccc(C2(O)CCCCC2CN(C)C)c1 (centres unmarked) [Tramadol]
anti-inflammatory effect (in words) ([2]; Tramadol 4 mg/kg alone): no anti-inflammatory effect
ml (inflamed paw/normal paw), intensity of oedema ([2]; Tramadol 4 mg/kg i.p. alone, 60 min after Tramadol): 0.80 ± 0.06 mL
bond with plasma proteins ([3]; in vivo): low
elimination half-life ([3]; in vivo): 1.5 to 7 h
time to peak plasma concentration ([3]; in vivo): ≤ 2 h
absorption after oral administration ([3]; oral, regardless of the formulation used): very good absorption
